What was measured:
[1] = molecular target: Bone morphogenetic protein receptor type-2 (Homo sapiens) (UniProt Q13873); conditions: Compound concentration 1000.0 nM
[2] = molecular target: Serine/threonine-protein kinase BRSK1 (Homo sapiens) (UniProt Q8TDC3); conditions: Compound concentration 1000.0 nM
[3] = molecular target: Dual specificity protein kinase CLK2 (Homo sapiens) (UniProt P49760); conditions: Compound concentration 1000.0 nM
[4] = molecular target: Myotonin-protein kinase (Homo sapiens) (UniProt Q09013); conditions: Compound concentration 1000.0 nM
Chain of Myotonin-protein kinase (Homo sapiens) (Q09013 whole entry): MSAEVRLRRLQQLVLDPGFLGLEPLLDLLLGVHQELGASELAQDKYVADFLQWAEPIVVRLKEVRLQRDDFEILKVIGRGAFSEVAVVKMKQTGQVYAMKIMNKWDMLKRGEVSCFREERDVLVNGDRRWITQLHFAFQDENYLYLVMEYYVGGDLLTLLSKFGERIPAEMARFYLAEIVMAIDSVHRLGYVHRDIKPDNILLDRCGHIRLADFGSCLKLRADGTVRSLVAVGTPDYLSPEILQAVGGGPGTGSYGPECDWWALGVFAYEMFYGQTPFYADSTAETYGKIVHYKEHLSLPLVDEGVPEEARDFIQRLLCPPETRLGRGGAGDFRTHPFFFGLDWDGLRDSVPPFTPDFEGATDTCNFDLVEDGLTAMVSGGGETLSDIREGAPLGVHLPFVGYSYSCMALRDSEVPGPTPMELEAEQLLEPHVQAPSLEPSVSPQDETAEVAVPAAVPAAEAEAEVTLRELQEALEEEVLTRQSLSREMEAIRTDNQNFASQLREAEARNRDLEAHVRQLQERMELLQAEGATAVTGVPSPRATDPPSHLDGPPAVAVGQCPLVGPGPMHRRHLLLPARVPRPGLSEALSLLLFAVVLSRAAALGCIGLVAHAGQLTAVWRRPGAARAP

[5] = test system: Epidermal growth factor receptor (Homo sapiens), P00533 [UNDEFINED MUTATION]; conditions: Compound concentration 1000.0 nM
[6] = test system: Epidermal growth factor receptor (Homo sapiens), P00533 [L858R]; conditions: Compound concentration 1000.0 nM
[7] = molecular target: Ephrin type-B receptor 1 (Homo sapiens) (UniProt P54762); conditions: Compound concentration 1000.0 nM
[8] = molecular target: Ephrin type-B receptor 4 (Homo sapiens) (UniProt P54760); conditions: Compound concentration 1000.0 nM
[9] = molecular target: Receptor tyrosine-protein kinase erbB-2 (Homo sapiens) (UniProt P04626); conditions: Compound concentration 1000.0 nM
[10] = molecular target: Serine/threonine-protein kinase ICK (Homo sapiens) (UniProt Q9UPZ9); conditions: Compound concentration 1000.0 nM
[11] = test system: Mast/stem cell growth factor receptor Kit (Homo sapiens), P10721 [V559D]; conditions: Compound concentration 1000.0 nM
[12] = molecular target: Serine/threonine-protein kinase LATS1 (Homo sapiens) (UniProt O95835); conditions: Compound concentration 1000.0 nM
Chain of Serine/threonine-protein kinase LATS1 (Homo sapiens) (O95835 whole entry): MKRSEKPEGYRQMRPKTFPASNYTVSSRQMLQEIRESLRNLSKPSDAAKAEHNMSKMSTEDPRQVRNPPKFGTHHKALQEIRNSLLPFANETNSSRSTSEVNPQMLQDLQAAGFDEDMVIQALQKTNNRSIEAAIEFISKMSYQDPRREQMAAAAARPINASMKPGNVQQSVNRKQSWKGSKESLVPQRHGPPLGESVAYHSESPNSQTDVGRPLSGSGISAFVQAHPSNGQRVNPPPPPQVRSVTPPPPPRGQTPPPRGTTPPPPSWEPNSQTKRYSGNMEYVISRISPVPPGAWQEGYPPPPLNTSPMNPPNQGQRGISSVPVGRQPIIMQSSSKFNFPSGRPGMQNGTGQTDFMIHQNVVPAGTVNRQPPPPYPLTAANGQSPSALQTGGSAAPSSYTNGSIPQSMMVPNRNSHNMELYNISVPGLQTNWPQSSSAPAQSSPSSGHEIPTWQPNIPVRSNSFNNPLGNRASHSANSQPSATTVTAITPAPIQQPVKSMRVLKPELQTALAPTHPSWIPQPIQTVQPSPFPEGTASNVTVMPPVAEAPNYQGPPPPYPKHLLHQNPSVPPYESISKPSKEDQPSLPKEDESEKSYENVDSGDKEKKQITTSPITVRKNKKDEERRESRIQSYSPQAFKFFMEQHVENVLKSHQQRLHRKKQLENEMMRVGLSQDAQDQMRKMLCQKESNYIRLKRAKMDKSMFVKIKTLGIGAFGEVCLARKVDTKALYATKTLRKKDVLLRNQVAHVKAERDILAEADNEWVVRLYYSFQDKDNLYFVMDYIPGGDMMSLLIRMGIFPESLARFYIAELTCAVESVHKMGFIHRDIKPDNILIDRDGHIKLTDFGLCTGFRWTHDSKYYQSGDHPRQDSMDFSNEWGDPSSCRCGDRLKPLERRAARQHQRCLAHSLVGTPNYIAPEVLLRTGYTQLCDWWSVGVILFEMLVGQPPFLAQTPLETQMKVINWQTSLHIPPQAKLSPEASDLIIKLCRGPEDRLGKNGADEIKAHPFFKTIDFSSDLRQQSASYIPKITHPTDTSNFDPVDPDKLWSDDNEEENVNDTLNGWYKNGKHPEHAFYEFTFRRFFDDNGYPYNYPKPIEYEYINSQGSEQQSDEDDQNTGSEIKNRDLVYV

[13] = molecular target: Serine/threonine-protein kinase STK11 (Homo sapiens) (UniProt Q15831); conditions: Compound concentration 1000.0 nM
[14] = test system: Leucine-rich repeat serine/threonine-protein kinase 2 (Homo sapiens), Q5S007 [G2019S]; conditions: Compound concentration 1000.0 nM
[15] = molecular target: Mitogen-activated protein kinase kinase kinase 13 (Homo sapiens) (UniProt O43283); conditions: Compound concentration 1000.0 nM
[16] = molecular target: MAP kinase-activated protein kinase 2 (Homo sapiens) (UniProt P49137); conditions: Compound concentration 1000.0 nM
Chain of MAP kinase-activated protein kinase 2 (Homo sapiens) (P49137 whole entry, looked up): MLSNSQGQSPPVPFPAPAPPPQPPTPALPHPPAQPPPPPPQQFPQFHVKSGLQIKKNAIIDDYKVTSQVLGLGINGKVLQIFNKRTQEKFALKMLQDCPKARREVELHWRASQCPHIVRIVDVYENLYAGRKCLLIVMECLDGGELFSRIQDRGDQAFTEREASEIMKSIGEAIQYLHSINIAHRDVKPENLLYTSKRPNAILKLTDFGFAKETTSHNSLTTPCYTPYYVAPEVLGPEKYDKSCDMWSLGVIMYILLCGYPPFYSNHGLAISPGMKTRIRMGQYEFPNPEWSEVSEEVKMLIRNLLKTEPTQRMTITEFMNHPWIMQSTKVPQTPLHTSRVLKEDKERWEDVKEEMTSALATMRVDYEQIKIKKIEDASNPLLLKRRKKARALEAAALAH

[17] = molecular target: Maternal embryonic leucine zipper kinase (Homo sapiens) (UniProt Q14680); conditions: Compound concentration 1000.0 nM
[18] = molecular target: Mitogen-activated protein kinase kinase kinase 11 (Homo sapiens) (UniProt Q16584); conditions: Compound concentration 1000.0 nM
[19] = molecular target: Serine/threonine-protein kinase 4 (Homo sapiens) (UniProt Q13043); conditions: Compound concentration 1000.0 nM
[20] = molecular target: Serine/threonine-protein kinase Nek11 (Homo sapiens) (UniProt Q8NG66); conditions: Compound concentration 1000.0 nM
[21] = molecular target: Serine/threonine-protein kinase PAK 6 (Homo sapiens) (UniProt Q9NQU5); conditions: Compound concentration 1000.0 nM
Chain of Serine/threonine-protein kinase PAK 6 (Homo sapiens) (Q9NQU5 whole entry, looked up): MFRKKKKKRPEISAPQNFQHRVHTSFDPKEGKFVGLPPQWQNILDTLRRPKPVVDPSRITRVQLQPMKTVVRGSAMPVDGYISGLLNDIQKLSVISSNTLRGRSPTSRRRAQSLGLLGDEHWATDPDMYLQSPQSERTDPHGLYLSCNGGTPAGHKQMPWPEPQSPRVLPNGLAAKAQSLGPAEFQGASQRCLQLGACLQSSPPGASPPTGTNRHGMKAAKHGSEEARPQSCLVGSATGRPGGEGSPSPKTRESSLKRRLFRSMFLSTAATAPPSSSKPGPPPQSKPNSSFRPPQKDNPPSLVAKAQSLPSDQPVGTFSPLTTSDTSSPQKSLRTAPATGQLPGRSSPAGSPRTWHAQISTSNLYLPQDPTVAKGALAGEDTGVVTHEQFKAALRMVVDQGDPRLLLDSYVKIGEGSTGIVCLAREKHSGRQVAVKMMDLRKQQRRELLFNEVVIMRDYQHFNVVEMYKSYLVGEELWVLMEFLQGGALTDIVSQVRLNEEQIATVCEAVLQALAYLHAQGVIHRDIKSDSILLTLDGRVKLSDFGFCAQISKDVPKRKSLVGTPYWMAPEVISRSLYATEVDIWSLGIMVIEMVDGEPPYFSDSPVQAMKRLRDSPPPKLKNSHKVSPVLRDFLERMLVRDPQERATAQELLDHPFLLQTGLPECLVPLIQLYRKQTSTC

[22] = molecular target: Cyclin-dependent kinase 14 (Homo sapiens) (UniProt O94921); conditions: Compound concentration 1000.0 nM
[23] = molecular target: Phosphatidylinositol 4-phosphate 3-kinase C2 domain-containing subunit beta (Homo sapiens) (UniProt O00750); conditions: Compound concentration 1000.0 nM
[24] = molecular target: cAMP-dependent protein kinase catalytic subunit alpha (Homo sapiens) (UniProt P17612); conditions: Compound concentration 1000.0 nM
[25] = molecular target: Membrane-associated tyrosine- and threonine-specific cdc2-inhibitory kinase (Homo sapiens) (UniProt Q99640); conditions: Compound concentration 1000.0 nM
[26] = molecular target: Serine/threonine-protein kinase PknB (Mycobacterium tuberculosis) (UniProt P9WI81); conditions: Compound concentration 1000.0 nM
[27] = molecular target: Protein kinase C delta type (Homo sapiens) (UniProt Q05655); conditions: Compound concentration 1000.0 nM
[28] = molecular target: Protein kinase C eta type (Homo sapiens) (UniProt P24723); conditions: Compound concentration 1000.0 nM
[29] = molecular target: Protein kinase C theta type (Homo sapiens) (UniProt Q04759); conditions: Compound concentration 1000.0 nM
[30] = test system: Proto-oncogene tyrosine-protein kinase receptor Ret (Homo sapiens), P07949 [M918T]; conditions: Compound concentration 1000.0 nM
[31] = molecular target: Receptor-interacting serine/threonine-protein kinase 1 (Homo sapiens) (UniProt Q13546); conditions: Compound concentration 1000.0 nM
[32] = molecular target: Mitogen-activated protein kinase kinase kinase 7 (Homo sapiens) (UniProt O43318); conditions: Compound concentration 1000.0 nM
[33] = molecular target: Serine/threonine-protein kinase ULK1 (Homo sapiens) (UniProt O75385); conditions: Compound concentration 1000.0 nM
[34] = molecular target: Serine/threonine-protein kinase ULK2 (Homo sapiens) (UniProt Q8IYT8); conditions: Compound concentration 1000.0 nM
[35] = molecular target: Wee1-like protein kinase (Homo sapiens) (UniProt P30291); conditions: Compound concentration 1000.0 nM
Chain of Wee1-like protein kinase (Homo sapiens) (P30291 whole entry, looked up): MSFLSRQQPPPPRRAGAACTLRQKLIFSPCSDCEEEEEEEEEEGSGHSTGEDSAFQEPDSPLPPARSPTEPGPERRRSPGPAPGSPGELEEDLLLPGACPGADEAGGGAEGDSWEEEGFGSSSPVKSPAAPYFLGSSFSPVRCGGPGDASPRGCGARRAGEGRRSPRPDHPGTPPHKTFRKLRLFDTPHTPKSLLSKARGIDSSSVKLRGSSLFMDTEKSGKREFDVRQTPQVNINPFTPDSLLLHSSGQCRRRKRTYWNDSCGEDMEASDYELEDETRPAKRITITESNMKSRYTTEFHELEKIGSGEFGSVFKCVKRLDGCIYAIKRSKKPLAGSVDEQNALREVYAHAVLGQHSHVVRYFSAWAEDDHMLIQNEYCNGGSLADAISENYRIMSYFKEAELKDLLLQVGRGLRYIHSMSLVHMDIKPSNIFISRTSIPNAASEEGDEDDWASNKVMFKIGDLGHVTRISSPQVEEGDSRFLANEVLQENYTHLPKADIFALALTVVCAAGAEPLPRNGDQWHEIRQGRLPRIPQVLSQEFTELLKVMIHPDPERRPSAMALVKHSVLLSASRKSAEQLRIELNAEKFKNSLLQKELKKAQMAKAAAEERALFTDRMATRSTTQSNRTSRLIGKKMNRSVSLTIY

[36] = molecular target: Serine/threonine-protein kinase WNK3 (Homo sapiens) (UniProt Q9BYP7); conditions: Compound concentration 1000.0 nM
[37] = molecular target: Serine/threonine-protein kinase 32C (Homo sapiens) (UniProt Q86UX6); conditions: Compound concentration 1000.0 nM
[38] = molecular target: Mitogen-activated protein kinase kinase kinase 19 (Homo sapiens) (UniProt Q56UN5); conditions: Compound concentration 1000.0 nM
Chain of Mitogen-activated protein kinase kinase kinase 19 (Homo sapiens) (Q56UN5 whole entry): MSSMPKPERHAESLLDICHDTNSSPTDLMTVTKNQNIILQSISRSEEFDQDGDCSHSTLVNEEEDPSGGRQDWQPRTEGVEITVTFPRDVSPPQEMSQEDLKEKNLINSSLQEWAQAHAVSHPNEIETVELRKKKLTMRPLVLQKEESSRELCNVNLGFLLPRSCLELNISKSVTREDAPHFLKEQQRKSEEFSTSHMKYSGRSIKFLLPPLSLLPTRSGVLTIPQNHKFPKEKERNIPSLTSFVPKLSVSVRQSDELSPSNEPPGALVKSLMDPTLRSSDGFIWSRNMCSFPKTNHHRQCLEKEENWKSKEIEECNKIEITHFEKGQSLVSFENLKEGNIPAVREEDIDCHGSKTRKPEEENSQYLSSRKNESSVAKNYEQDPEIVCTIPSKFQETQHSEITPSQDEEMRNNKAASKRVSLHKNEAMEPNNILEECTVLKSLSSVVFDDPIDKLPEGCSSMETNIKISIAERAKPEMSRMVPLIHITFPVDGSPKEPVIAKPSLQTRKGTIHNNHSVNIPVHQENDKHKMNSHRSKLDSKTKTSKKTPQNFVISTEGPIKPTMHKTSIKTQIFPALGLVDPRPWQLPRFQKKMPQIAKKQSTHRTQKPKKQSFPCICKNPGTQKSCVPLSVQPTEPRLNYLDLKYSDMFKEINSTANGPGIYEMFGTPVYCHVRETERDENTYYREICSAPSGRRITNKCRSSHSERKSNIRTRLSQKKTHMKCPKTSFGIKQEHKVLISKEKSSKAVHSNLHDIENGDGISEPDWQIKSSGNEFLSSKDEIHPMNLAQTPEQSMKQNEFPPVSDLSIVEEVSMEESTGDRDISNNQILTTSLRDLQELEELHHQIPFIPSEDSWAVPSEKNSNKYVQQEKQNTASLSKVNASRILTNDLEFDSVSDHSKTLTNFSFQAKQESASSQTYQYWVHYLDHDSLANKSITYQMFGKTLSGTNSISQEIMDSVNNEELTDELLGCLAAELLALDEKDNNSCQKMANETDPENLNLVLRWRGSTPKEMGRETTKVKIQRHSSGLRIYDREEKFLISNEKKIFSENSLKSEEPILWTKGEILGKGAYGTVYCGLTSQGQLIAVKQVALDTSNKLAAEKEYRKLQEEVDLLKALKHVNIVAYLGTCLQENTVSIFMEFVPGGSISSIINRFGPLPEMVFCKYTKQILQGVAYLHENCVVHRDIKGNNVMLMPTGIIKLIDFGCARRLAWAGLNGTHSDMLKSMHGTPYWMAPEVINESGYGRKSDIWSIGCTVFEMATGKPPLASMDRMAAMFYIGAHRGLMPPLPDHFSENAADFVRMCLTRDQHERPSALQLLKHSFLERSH

[39] = molecular target: 5-hydroxytryptamine receptor 1E (Homo sapiens) (UniProt P28566); conditions: Compound concentration 10.0 uM
[40] = molecular target: 5-hydroxytryptamine receptor 2B (Homo sapiens) (UniProt P41595); conditions: Compound concentration 10.0 uM
[41] = molecular target: 5-hydroxytryptamine receptor 5A (Homo sapiens) (UniProt P47898); conditions: Compound concentration 10.0 uM
[42] = molecular target: Mu-type opioid receptor (Homo sapiens) (UniProt P35372); conditions: Compound concentration 10.0 uM
[43] = molecular target: Alpha-1B adrenergic receptor (Homo sapiens) (UniProt P35368); conditions: Compound concentration 10.0 uM
[44] = molecular target: Beta-1 adrenergic receptor (Homo sapiens) (UniProt P08588); conditions: Compound concentration 10.0 uM
[45] = molecular target: Muscarinic acetylcholine receptor M4 (Homo sapiens) (UniProt P08173); conditions: Compound concentration 10.0 uM

C[C@H](NC(=O)c1cnc2n1[C@](C)(Cc1ccc(C#N)cc1)C(=O)N2c1cc(Cl)c(F)c(Cl)c1)C(=O)NC1(c2ccccn2)CC1 [BI 1950]
inactive: residual activity [1] 100% | residual activity [2] 100% | residual activity [3] 97% | residual activity [4] 67% | residual activity [5] 82% | residual activity [6] 100% | residual activity [7] 85% | residual activity [8] 100% | residual activity [9] 100% | residual activity [10] 100% | residual activity [11] 91% | residual activity [12] 100% | residual activity [13] 100% | residual activity [14] 100% | residual activity [15] 100% | residual activity [16] 100% | residual activity [17] 86% | residual activity [18] 100% | residual activity [19] 100% | residual activity [20] 100% | residual activity [21] 96% | residual activity [22] 100% | residual activity [23] 85% | residual activity [24] 100% | residual activity [25] 79% | residual activity [26] 100% | residual activity [27] 100% | residual activity [28] 90% | residual activity [29] 100% | residual activity [30] 100% | residual activity [31] 100% | residual activity [32] 97% | residual activity [33] 100% | residual activity [34] 100% | residual activity [35] 100% | residual activity [36] 78% | residual activity [37] 100% | residual activity [38] 100% | inhibition [39] 17.7% | inhibition [40] 17.2% | inhibition [41] 6.14% | inhibition [42] 17.4% | inhibition [43] 2.35% | inhibition [44] 24.1% | inhibition [45] 12.1%

C[C@@]1(Cc2ccc(C#N)cc2)C(=O)N(c2cc(Cl)cc(Cl)c2)c2ncc(C(=O)NC3(c4nc(C5CCC5)no4)CC3)n21 [BI 9446]
inactive: residual activity [1] 100% | residual activity [2] 100% | residual activity [3] 100% | residual activity [4] 100% | residual activity [5] 58% | residual activity [6] 100% | residual activity [7] 87% | residual activity [8] 100% | residual activity [9] 100% | residual activity [10] 100% | residual activity [11] 99% | residual activity [12] 96% | residual activity [13] 100% | residual activity [14] 100% | residual activity [15] 100% | residual activity [16] 100% | residual activity [17] 89% | residual activity [18] 100% | residual activity [19] 92% | residual activity [20] 100% | residual activity [21] 100% | residual activity [22] 100% | residual activity [23] 100% | residual activity [24] 100% | residual activity [25] 75% | residual activity [26] 96% | residual activity [27] 100% | residual activity [28] 100% | residual activity [29] 98% | residual activity [30] 100% | residual activity [31] 100% | residual activity [32] 96% | residual activity [33] 100% | residual activity [34] 100% | residual activity [35] 100% | residual activity [36] 100% | residual activity [37] 99% | residual activity [38] 100% | inhibition [39] 31.5% | inhibition [40] 15.5% | inhibition [41] 2.14% | inhibition [42] 31.1% | inhibition [43] 23.8% | inhibition [44] 29.7% | inhibition [45] 21.6%
